Experiments:
[1] = target: Bone morphogenetic protein receptor type-1A (Homo sapiens) (UniProt P36894); assay: Inhibition of wild-type human partial length BMPR1A (Q214 to I532 residues) expressed in bacterial expression system assessed as residual activity at 1 uM by Kinomescan method relative to control
[2] = target: CDK2/Cyclin A2 (Homo sapiens) (UniProt P24941+P20248); assay: Inhibition of wild-type human full length CDK2 (M1 to L298 residues)/Cyclin A expressed in bacterial expression system assessed as residual activity at 1 uM by Kinomescan method relative to control
[3] = target: Tyrosine-protein kinase Lck (Homo sapiens) (UniProt P06239); assay: Inhibition of wild-type human partial length LCK (R207 to P509 residues) expressed in bacterial expression system assessed as residual activity at 1 uM by Kinomescan method relative to control
[4] = target: Tyrosine-protein kinase Fer (Homo sapiens) (UniProt P16591); assay: Inhibition of wild-type human partial length FER (S542 to T822 residues) expressed in bacterial expression system assessed as residual activity at 1 uM by Kinomescan method relative to control
[5] = Unbound fraction in rat blood; assay type: ADME, tissue-based
[6] = target: Mitogen-activated protein kinase 14 (Homo sapiens) (UniProt Q16539); assay: Inhibition of wild-type human full length p38-alpha (M1 to S360 residues) expressed in bacterial expression system assessed as residual activity at 1 uM by Kinomescan method relative to control
[7] = target: Casein kinase I isoform delta (Homo sapiens) (UniProt P48730); assay: Inhibition of CK1D (unknown origin) assessed as residual activity at 1 uM by Kinomescan method relative to control
[8] = target: Mitogen-activated protein kinase kinase kinase 1 (Homo sapiens) (UniProt Q13233); assay: Inhibition of MEKK1 (unknown origin) assessed as residual activity at 1 uM by Kinomescan method relative to control
[9] = target: Dual specificity tyrosine-phosphorylation-regulated kinase 2 (Homo sapiens) (UniProt Q92630); assay: Inhibition of wild-type human full length DYRK2 (M1 to S528 residues) expressed in mammalian expression system assessed as residual activity at 1 uM by Kinomescan method relative to control
[10] = target: Serine/threonine-protein kinase PAK 4 (Homo sapiens) (UniProt O96013); assay: Inhibition of wild-type human partial length PAK4 (Q144 to R438 residues) expressed in bacterial expression system assessed as residual activity at 1 uM by Kinomescan method relative to control
[11] = target: Protein kinase C theta type (Homo sapiens) (UniProt Q04759); assay: Inhibition of PKCtheta (unknown origin) assessed as residual activity at 1 uM by Kinomescan method relative to control
[12] = target: Protein kinase C beta type (Homo sapiens) (UniProt P05771); assay: Inhibition of PKCbeta1 (unknown origin) assessed as residual activity at 1 uM by Kinomescan method relative to control
Sequence of Protein kinase C beta type (Homo sapiens) (P05771 2-671 limits assumed): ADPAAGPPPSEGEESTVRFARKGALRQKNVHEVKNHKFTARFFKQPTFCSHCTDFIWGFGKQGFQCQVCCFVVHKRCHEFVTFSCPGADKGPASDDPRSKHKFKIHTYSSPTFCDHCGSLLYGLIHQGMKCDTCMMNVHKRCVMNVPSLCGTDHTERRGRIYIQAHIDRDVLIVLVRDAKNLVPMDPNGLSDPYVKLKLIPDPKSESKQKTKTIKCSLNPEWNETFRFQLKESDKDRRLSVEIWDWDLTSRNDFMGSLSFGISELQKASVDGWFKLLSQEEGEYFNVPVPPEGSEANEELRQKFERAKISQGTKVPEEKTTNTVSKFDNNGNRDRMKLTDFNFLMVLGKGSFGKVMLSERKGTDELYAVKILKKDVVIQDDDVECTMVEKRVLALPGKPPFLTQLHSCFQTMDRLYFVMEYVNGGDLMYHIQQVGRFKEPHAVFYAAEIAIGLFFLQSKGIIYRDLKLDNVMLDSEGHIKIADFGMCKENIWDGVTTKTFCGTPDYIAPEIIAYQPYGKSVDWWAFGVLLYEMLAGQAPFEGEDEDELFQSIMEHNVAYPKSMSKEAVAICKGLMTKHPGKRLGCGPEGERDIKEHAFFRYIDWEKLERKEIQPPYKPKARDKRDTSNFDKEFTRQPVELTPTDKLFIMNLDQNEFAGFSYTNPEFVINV

[13] = target: Serine/threonine-protein kinase Nek9 (Homo sapiens) (UniProt Q8TD19); assay: Inhibition of wild-type human partial length NEK9 (P32 to R328 residues) expressed in bacterial expression system assessed as residual activity at 1 uM by Kinomescan method relative to control
[14] = target: Protein kinase C zeta type (Homo sapiens) (UniProt Q05513); assay: Inhibition of PKCzeta (unknown origin) assessed as residual activity at 1 uM by Kinomescan method relative to control
[15] = target: Solute carrier organic anion transporter family member 1B1 (Homo sapiens, UniProt Q9Y6L6); assay: Inhibition of human OATP1B1
[16] = target: BDNF/NT-3 growth factors receptor (Homo sapiens) (UniProt Q16620); assay: Inhibition of wild-type human partial length TRKB (Q547 to G838 residues) expressed in mammalian expression system assessed as residual activity at 1 uM by Kinomescan method relative to control
Sequence of BDNF/NT-3 growth factors receptor (Homo sapiens) (Q16620 32-822 limits assumed): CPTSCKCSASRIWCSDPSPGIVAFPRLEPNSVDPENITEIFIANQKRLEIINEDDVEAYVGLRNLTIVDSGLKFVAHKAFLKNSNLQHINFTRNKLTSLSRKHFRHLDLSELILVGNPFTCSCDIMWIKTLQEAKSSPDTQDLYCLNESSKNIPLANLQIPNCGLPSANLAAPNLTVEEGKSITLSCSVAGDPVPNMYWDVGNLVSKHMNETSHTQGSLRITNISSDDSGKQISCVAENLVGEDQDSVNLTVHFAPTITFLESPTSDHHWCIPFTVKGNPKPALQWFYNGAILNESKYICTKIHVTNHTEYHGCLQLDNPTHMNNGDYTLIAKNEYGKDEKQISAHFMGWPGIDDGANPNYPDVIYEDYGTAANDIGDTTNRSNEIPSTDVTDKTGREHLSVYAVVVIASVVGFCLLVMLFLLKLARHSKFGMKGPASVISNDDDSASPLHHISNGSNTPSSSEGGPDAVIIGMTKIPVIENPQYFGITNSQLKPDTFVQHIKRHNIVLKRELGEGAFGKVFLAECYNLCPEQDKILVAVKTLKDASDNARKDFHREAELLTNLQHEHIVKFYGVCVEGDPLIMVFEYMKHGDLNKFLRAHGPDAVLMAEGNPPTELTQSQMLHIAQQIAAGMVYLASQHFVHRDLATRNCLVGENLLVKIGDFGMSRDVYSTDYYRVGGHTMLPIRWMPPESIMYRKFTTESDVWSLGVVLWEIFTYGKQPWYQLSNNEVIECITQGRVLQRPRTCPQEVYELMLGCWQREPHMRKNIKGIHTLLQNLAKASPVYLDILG

[17] = target: Tyrosine-protein kinase ZAP-70 (Homo sapiens) (UniProt P43403); assay: Inhibition of wild-type human partial length ZAP70 (D20 to G299 residues) expressed in mammalian expression system assessed as residual activity at 1 uM by Kinomescan method relative to control
[18] = target: Tyrosine-protein kinase CSK (Homo sapiens) (UniProt P41240); assay: Inhibition of wild-type human full length CSK (M1 to L450 residues) expressed in bacterial expression system assessed as residual activity at 1 uM by Kinomescan method relative to control
[19] = target: Cyclin-dependent kinase 5/CDK5 activator 1 (Homo sapiens) (UniProt Q00535+Q15078); assay: Inhibition of wild-type human full length CDK5 (M1 to P292 residues)/p35 expressed in bacterial expression system assessed as residual activity at 1 uM by Kinomescan method relative to control
[20] = target: Mitogen-activated protein kinase 8 (Homo sapiens) (UniProt P45983); assay: Inhibition of wild-type human full length JNK1 (M1 to Q384 residues) expressed in mammalian expression system assessed as residual activity at 1 uM by Kinomescan method relative to control
Sequence of Mitogen-activated protein kinase 8 (Homo sapiens) (P45983 whole entry, the tested form may be a part): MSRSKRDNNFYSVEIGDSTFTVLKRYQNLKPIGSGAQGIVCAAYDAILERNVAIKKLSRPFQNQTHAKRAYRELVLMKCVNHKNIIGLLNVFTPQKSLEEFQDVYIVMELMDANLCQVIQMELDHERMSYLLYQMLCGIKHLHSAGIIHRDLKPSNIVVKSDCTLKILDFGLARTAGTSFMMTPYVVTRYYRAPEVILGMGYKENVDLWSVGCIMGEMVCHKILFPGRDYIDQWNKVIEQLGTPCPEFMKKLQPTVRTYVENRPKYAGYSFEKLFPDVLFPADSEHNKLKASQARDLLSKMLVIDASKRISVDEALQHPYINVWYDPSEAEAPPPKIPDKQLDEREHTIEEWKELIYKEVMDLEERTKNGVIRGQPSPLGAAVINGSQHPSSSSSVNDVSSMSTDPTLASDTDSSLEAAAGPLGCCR

[21] = target: Serine/threonine-protein kinase TBK1 (Homo sapiens) (UniProt Q9UHD2); assay: Inhibition of wild-type human full length TBK1 (M1 to L729 residues) expressed in mammalian expression system assessed as residual activity at 1 uM by Kinomescan method relative to control
Sequence of Serine/threonine-protein kinase TBK1 (Homo sapiens) (Q9UHD2 whole entry, the tested form may be a part): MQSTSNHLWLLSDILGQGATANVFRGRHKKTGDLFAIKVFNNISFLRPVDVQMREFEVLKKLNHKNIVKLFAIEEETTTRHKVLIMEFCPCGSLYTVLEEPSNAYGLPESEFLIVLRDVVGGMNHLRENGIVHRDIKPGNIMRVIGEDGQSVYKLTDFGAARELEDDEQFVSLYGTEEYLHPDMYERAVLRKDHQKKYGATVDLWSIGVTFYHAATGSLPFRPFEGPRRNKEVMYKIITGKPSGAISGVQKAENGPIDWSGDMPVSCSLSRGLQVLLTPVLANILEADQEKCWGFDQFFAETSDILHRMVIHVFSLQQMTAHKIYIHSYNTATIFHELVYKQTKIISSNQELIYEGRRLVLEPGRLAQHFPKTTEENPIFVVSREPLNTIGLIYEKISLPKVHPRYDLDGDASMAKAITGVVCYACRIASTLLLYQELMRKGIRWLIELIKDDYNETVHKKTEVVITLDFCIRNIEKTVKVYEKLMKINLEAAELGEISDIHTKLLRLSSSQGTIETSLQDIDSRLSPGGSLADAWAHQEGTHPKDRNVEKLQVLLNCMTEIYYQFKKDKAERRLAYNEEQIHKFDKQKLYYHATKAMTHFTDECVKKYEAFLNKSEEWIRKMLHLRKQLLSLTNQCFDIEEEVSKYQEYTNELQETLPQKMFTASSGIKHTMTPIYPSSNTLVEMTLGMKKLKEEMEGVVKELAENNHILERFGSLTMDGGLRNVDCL

[22] = target: Serine/threonine-protein kinase B-raf (Homo sapiens) (UniProt P15056); assay: Inhibition of wild type human BRAF (S429 to E741 residues) expressed in bacterial expression system assessed as residual activity at 1 uM by Kinomescan method relative to control
[23] = target: Tyrosine-protein kinase Lyn (Homo sapiens) (UniProt P07948); assay: Inhibition of human LYN B assessed as residual activity at 1 uM by Kinomescan method relative to control
Sequence of Tyrosine-protein kinase Lyn (Homo sapiens) (P07948 2-512 limits assumed): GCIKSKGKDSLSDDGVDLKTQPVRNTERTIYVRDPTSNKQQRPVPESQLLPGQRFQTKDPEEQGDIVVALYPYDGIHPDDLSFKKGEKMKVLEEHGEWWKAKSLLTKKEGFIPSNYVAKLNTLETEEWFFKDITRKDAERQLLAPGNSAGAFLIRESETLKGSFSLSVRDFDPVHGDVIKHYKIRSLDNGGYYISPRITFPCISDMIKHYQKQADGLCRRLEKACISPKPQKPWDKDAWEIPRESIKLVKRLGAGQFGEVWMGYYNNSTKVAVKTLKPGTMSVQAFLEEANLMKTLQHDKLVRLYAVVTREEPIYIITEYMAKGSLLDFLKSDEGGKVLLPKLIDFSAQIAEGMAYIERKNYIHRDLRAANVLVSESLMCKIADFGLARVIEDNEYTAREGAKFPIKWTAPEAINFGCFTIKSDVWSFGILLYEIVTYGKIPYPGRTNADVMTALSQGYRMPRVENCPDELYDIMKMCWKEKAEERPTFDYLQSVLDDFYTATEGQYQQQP

[24] = target: RAC-beta serine/threonine-protein kinase (Homo sapiens) (UniProt P31751); assay: Inhibition of wild-type human partial length AKT2 expressed in bacterial expression system assessed as residual activity at 1 uM by Kinomescan method relative to control
Sequence of RAC-beta serine/threonine-protein kinase (Homo sapiens) (P31751 whole entry, the tested form may be a part): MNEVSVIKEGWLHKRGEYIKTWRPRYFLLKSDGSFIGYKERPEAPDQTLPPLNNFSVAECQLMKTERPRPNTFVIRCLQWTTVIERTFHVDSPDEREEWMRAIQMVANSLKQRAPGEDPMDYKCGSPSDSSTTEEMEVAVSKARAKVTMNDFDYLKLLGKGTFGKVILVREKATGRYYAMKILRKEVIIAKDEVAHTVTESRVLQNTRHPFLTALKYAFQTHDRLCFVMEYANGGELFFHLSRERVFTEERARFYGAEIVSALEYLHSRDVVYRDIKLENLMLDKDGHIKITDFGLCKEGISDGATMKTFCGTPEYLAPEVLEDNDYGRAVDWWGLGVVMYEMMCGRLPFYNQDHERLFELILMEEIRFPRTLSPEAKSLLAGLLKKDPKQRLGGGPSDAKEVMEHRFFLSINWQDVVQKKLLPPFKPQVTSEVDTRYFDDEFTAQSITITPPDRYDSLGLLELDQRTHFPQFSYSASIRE

[25] = target: Calcium/calmodulin-dependent protein kinase type 1D (Homo sapiens) (UniProt Q8IU85); assay: Inhibition of wild-type human partial length CAMK1D (M1 to K299 residues) expressed in bacterial expression system assessed as residual activity at 1 uM by Kinomescan method relative to control
Sequence of Calcium/calmodulin-dependent protein kinase type 1D (Homo sapiens) (Q8IU85 whole entry, looked up, the tested form may be a part): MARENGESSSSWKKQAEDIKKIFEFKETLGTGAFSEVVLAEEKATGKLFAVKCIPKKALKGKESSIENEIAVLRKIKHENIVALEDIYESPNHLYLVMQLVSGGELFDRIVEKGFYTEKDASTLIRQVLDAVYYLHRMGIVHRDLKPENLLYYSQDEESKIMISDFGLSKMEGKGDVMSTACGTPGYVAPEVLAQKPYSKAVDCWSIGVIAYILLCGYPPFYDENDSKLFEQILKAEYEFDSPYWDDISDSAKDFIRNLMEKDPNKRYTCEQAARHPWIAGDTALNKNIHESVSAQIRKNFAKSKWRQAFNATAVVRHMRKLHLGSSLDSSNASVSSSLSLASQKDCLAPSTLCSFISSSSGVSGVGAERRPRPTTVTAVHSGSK

[26] = target: Mitogen-activated protein kinase 10 (Homo sapiens) (UniProt P53779); assay: Inhibition of wild-type human partial length JNK3 (V28 to Q422 residues) expressed in mammalian expression system assessed as residual activity at 1 uM by Kinomescan method relative to control
Sequence of Mitogen-activated protein kinase 10 (Homo sapiens) (P53779 whole entry, the tested form may be a part): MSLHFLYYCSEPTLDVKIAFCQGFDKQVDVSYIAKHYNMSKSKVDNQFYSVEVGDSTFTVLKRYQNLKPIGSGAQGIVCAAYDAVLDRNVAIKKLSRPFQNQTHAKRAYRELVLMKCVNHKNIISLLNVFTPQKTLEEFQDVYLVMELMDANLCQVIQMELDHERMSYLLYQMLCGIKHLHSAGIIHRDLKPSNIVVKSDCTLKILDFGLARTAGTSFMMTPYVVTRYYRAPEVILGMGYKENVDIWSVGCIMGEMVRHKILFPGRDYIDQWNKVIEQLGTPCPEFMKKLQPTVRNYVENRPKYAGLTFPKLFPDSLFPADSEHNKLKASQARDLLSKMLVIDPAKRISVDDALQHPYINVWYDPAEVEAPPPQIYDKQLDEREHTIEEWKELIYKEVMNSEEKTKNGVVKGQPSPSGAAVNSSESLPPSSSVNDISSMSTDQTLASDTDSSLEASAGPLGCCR

[27] = target: Activin receptor type-1 (Homo sapiens) (UniProt Q04771); assay: Inhibition of human wild type partial length ACVR1 (C188 to C509 residues) expressed in bacterial expression system assessed as residual activity at 1 uM by Kinomescan method relative to control
[28] = target: Serine/threonine-protein kinase MRCK alpha (Homo sapiens) (UniProt Q5VT25); assay: Inhibition of wild-type human partial length MRCKA (L57 to V418 residues) expressed in bacterial expression system assessed as residual activity at 1 uM by Kinomescan method relative to control

Sequence of Bone morphogenetic protein receptor type-1A (Homo sapiens) (P36894 whole entry, the tested form may be a part): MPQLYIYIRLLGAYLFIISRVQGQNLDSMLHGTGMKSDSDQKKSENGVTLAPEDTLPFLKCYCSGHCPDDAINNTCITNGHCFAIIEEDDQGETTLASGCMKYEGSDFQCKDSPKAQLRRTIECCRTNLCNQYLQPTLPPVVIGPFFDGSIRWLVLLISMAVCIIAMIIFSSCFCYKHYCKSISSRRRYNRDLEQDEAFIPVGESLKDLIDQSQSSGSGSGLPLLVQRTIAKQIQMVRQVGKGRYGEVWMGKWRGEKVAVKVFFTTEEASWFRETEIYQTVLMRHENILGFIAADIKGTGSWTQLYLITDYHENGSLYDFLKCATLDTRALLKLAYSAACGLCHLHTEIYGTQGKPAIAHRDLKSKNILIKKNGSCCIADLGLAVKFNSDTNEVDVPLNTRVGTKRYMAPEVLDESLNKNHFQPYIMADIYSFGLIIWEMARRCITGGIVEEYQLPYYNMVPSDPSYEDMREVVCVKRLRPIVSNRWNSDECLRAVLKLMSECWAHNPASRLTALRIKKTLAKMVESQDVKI

## CCOc1nc(Nc2ccc(C(=O)N3CCOCC3)cc2OC)nc2[nH]ccc12
[1]
  Activity: 94%
[2]
  Activity: 94.9%
[3]
  Activity: 80.4%
[4]
  Activity: 36.5%
[5]
  fraction unbound: 0.032
[6]
  Activity: 99.9%
[7]
  Activity: 80.2%
[8]
  Activity: 99%
[9]
  Activity: 81.3%
[10]
  Activity: 99%
[11]
  Activity: 83.7%
[12]
  Activity: 100%
[13]
  Activity: 100%
[14]
  Activity: 99.9%
[15]
  IC50: 12.6 µM
[16]
  Activity: 102%
[17]
  Activity: 124%
[18]
  Activity: 104%
[19]
  Activity: 93.1%
[20]
  Activity: 40.5%
[21]
  Activity: 91.7%
[22]
  Activity: 88%
[23]
  Activity: 97.5%
[24]
  Activity: 97.1%
[25]
  Activity: 122%
[26]
  Activity: 100%
[27]
  Activity: 108%
[28]
  Activity: 99.4%

— ChEMBL document CHEMBL4715821, “Discovery of 4-ethoxy-7H-pyrrolo[2,3-d]pyrimidin-2-amines as potent, selective and orally bioavailable LRRK2 inhibitors” (Bioorg Med Chem Lett, 2018)
